Measured values taken from article PMC4454681, “Design and Evaluation of Antimalarial Peptides Derived from Prediction of Short Linear Motifs in Proteins Related to Erythrocyte Invasion” (PLoS ONE, 2015).
“Also recorded” adds a separate entry of the source. Where a SMILES comes first, the peptide text is derived from it. The star is where a group is joined. Palmitoyl = CCCCCCCCCCCCCCCC(=O)*

Assays:
[1] = tested on: 3D7 line of P. falciparum; assay: Peptide inhibition of parasite growth (pLDH method); assay type: cell-based, Plasmodium falciparum; conditions: for Growth inhibition: 100 μM peptide, 48 hour and 72 hour time points, asynchronous cultures, 2% haematocrit, 0.8% initial parasitaemia, max 0.5% DMSO, pLDH activity; for Growth inhibition / Concentration-response relationship of growth inhibition / Growth inhibition (dose-response curves): means of three experiments in duplicate; for Concentration-response relationship of growth inhibition: ten concentrations between 10 μM and 100 μM; for Concentration-response relationship of growth inhibition / Growth inhibition (dose-response curves): 48 and 72 hours
Description: P. falciparum line 3D7, adapted to grow in Albumax® (BioSciences, Dun Laoghaire, Ireland), was cultured in human erythrocytes (Irish Blood Transfusion Board, Ireland) in standard growth medium, in candle jars. Fresh erythrocytes were obtained every three weeks and washed according to lab protocols. Staining of blood smears was with Giemsa stain. The number of infected erythrocytes was counted by microscopy and the parasitaemia was calculated.
The antimalarial activity of test peptides (ChinaPeptides Co. Ltd, Shanghai, China) was determined in culture on the 3D7 line of P. falciparum using the parasite lactate dehydrogenase (pLDH) method in 96-well microtitre plates with modifications as previously described. Each test peptide was initially evaluated at three different concentrations, 100 μM, 10 μM and 1 μM, to determine activity range. The effect of the compounds was evaluated at 48 and 72 hours on growth of asynchronous cultures (cultured as described in the previous section) of P. falciparum, determined by the assay of pLDH activity. We used unsynchronised cultures in order (i) to make no prior assumptions about the stage of growth that might be inhibited and (ii) to avoid possible inhibitory effects of the synchronising protocol, e.g. sorbitol treatment, separation techniques, etc. The appropriate dilutions of the compounds were prepared in DMSO and added to the cultures of P. falciparum (2% haematocrit, 0.8% initial parasitaemia and a maximum of 0.5% DMSO). The same methodology was then used to assess the dose-response curves of peptides 5, 7, 10, 11, 12, 13 using ten concentrations between 10 μM and 100 μM.

[2] = tested on: P. falciparum late stages (trophozoite/schizont) introduced to fresh erythrocytes; assay: Schizont to ring development assay; assay type: cell-based, Plasmodium falciparum; conditions: 100 μM peptide, 2 hours with magnetically purified schizonts, washed, fresh erythrocytes 14–16 hours; rings counted in Giemsa smears; two experiments in triplicate
Description: Routine erythrocytic P. falciparum cultures are an asynchronous culture consisting of rings, trophozoites, schizonts and merozoites. To enrich for the late stages of erythrocytic development, parasites at high parasitaemia (>15%) were subjected to magnetic selection. Parasitised erythrocytes were passed over a CS column (Miltenyi Biotec, Surrey, UK) which was mounted on a VarioMacs magnet (Miltenyi Biotec, Surrey, UK). The column was then washed with incomplete medium (RPMI 1640 supplemented with 25 mM HEPES, hypoxanthine [50 μg/ml], 0.16% w/v glucose) to remove unparasitised erythrocytes and was then removed from the magnet, a further wash with incomplete medium eluting late-stage parasitised erythrocytes.
Parasites synchronised to late stages (trophozoite/schizont) by magnetic selection were incubated with either the peptide being tested (100 μM concentration) or vehicle only control (DMSO) in complete medium for two hours. Treated schizonts were washed with complete medium and centrifugation at 350 xg for 10 minutes. Washing was repeated twice. Treated schizonts were then introduced to fresh erythrocytes at 2.5% hematocrit and incubated overnight (14–16 hours) with shaking. Parasitaemia was assessed by counting the number of ring stages in parasitised erythrocytes in Giemsa stained blood smears by light microscopy. This crude assay measures not just invasion but merozoite release and early ring-stage development.

[3] = tested on: erythrocytes from healthy human volunteers; conditions: 100 μM peptide; approx. 1.5 × 10^8 erythrocytes, 15 minutes at 37°C, buffer A pH 7.4; absorbance 405 nm; compared with 0.1% (v/v) Triton X-100 = 100%; duplicate, three donors
Description: The hemolytic activity of the peptides was investigated using erythrocytes from healthy human volunteers. Blood was collected in the presence of 15% anticoagulant acid citrate glucose (ACD) (38 mM citric acid, 75 mM sodium citrate, 124 mM glucose) and was centrifuged at 150 xg for 10 minutes at room temperature. Plasma was removed and erythrocytes were washed twice with buffer A (pH 7.4) (130 mM sodium chloride, 10 mM sodium citrate, 9 mM sodium biocarbonate, 6 mM glucose, 0.9 mM magnesium chloride, 0.81 mM potassium hydrogen phosphate, 10 mM Tris), by cenrifugation at 1,000 xg for 5 minutes and resuspended in the same buffer. For the hemolysis assay approximately 1.5 × 10^8 erythrocytes were incubated with solutions of peptides 5, 10 or 12-Cam at 100 μM and 10 μM concentrations for 15 minutes at 37°C. After incubation, samples were centrifuged at 1,000 xg for 5 minutes and the supernatant was analysed for the presence of hemoglobin at an absorbance of 405 nm. Complete hemolysis was achieved using 0.1% (v/v) Triton X-100 yielding the 100% control value. The assay was run in duplicate with three different donors.

[4] = reason for exclusion from further investigation

CCCCCCCCCCCCCCCC(=O)O [Palmitate, reference compound]
Growth inhibition [1]: no inhibitory effect

CCCCCCCCCCCCCCCC(=O)N[C@@H](CO)C(=O)N[C@@H](CO)C(=O)N[C@@H](CO)C(=O)N[C@@H](CCCNC(=N)N)C(=O)N[C@@H](CCCCN)C(=O)N[C@@H](CC(N)=O)C(=O)N[C@@H](CCCNC(=N)N)C(=O)N[C@@H](Cc1ccccc1)C(=O)N[C@@H](CCCNC(=N)N)C(=O)N[C@@H](Cc1ccc(O)cc1)C(=O)N[C@@H](CC(C)C)C(=O)N1CCC[C@H]1C(=O)N[C@@H](Cc1ccccc1)C(N)=O [Peptide 5] (Palmitoyl-SSSRKNRFRYLPF-NH2)
Growth inhibition [1]: clearly observed
Concentration-response relationship of growth inhibition [1]: clear increases in growth inhibition with increasing concentration
Ability of merozoites to establish new infections in fresh erythrocytes (ring parasitaemia, % of control) [2]: almost totally reduced

CCCCCCCCCCCCCCCC(=O)N[C@@H](CCCNC(=N)N)C(=O)N[C@@H](CCCNC(=N)N)C(=O)N[C@@H](CC(C)C)C(=O)N[C@H](C(=O)N[C@@H](CCCCN)C(=O)N[C@@H](CCCCN)C(=O)N[C@@H](CO)C(=O)N1CCC[C@H]1C(N)=O)[C@@H](C)CC [Peptide 10] (Palmitoyl-RRLIKKSP-NH2)
Release of haemoglobin from erythrocytes [3]: approximately 50%
Growth inhibition [1]: clearly observed
Concentration-response relationship of growth inhibition [1]: clear increases in growth inhibition with increasing concentration
Ability of merozoites to establish new infections in fresh erythrocytes (ring parasitaemia, % of control) [2]: not as significant as that of the other two peptides

CCCCCCCCCCCCCCCC(=O)N[C@@H](CO)C(=O)N[C@@H](Cc1ccc(O)cc1)C(=O)N[C@H](C(=O)N[C@H](C(=O)N[C@@H](CCCNC(=N)N)C(=O)N[C@@H](CCCNC(=N)N)C(=O)N[C@@H](CC(C)C)C(=O)N[C@H](C(=O)N[C@@H](CCCCN)C(=O)N[C@@H](C)C(N)=O)[C@@H](C)CC)[C@@H](C)CC)[C@@H](C)O [Peptide 12-Cam] (Palmitoyl-SYTIRRLIKA-NH2)
Growth inhibition of amidated peptide 12 versus its scrambled versions ([1]; 10 μM, 48 and 72 hours (Fig 4), three experiments in duplicate): more active than four scrambled controls

pal-AALQEPALQDAGESSRKEYFI [glycophorin-C peptide, palmitoylated peptide from glycophorin-C, preliminary testing only]
Activity in preliminary testing ([1]; preliminary testing, no further tests conducted): no activity

pal-KEEIIEIVFDENEEKYF [Peptide 7]
Growth inhibition (dose-response curves) ([1]; 10 μM): no inhibition
Growth inhibition [1]: some growth inhibition; also recorded: moderate activity

pal-KHRKGNNA-NH2 [Peptide 13, palmitoylated, amidated peptide from complement receptor type 1]
Growth inhibition (dose-response curves) ([1]; 10 μM): no inhibition
Growth inhibition [1]: some growth inhibition; also recorded: moderate activity

pal-KKKLYLYFE-NH2 [Peptide 3]
Growth inhibition [1]: some growth inhibition
Solubility [4]: insolubility

pal-KRKLKEEQRTKKIKID [Peptide 4, palmitoylated peptide from putative calcium-transporting ATPase Q76NN8]
Antimalarial activity (overall, growth inhibition assay) ([1]; tested at 100 μM, 10 μM and 1 μM): inactive

pal-SYSIRRLIKA [Peptide 11, palmitoylated peptide from glycophorin-B]
Growth inhibition [1]: some growth inhibition
Concentration-response relationship of growth inhibition [1]: no such clear effect

pal-SYTIRRLIKA [Peptide 12, palmitoylated peptide from glycophorin-B, common human polymorphism of peptide 11]
Growth inhibition [1]: clearly observed
Concentration-response relationship of growth inhibition [1]: clear increases in growth inhibition with increasing concentration
Ability of merozoites to establish new infections in fresh erythrocytes (ring parasitaemia, % of control) [2]: almost totally reduced
